Measured values reported in article PMC8206078, “Identification of pyrogallol as a warhead in design of covalent inhibitors for the SARS-CoV-2 3CL protease” (Nature Communications, 2021).
Where “and” joins values, the source holds several entries; their conditions need not be identical. Equal values may be shown once. Read-outs that look alike come from different tables or passages of the source.

Legend:
[1] = for myricetin consumed: GSH, 600 min
[2] = system: SARS-CoV-2 replication in Vero E6 cells; conditions: cited from earlier work
[3] = system: SARS-CoV-2 replication in Vero E6 cells; test: microbe, parasite or virus in culture; format: cell-based
[4] = male, ICR, in vivo, po, 30 mg/kg
in vivo = conditions: male, ICR, mouse; for AUC(0-inf): AUCINF_obs; for AUC(0-t): AUClast; for MRT inf: MRTINF_obs; for half-life: T1/2
PK study in mice = conditions: mouse; for half-life: male, ICR, plasma; for T1/2: individual animals
SARS-CoV-2 PLpro = SARS-CoV-2 PLpro (Severe acute respiratory syndrome coronavirus 2, UniProt P0DTD1); format: biochemical
[5] = molecular target: chymotrypsin from bovine pancreas (Bos taurus, UniProt P00766); test: biochemical
in vitro = conditions: African green monkey
[6] = Severe acute respiratory syndrome coronavirus 2, Vero C1008, 24 h
[7] = iv, 10 mg/kg, Concentration in mouse plasma, Mean
[8] = po, 30 mg/kg, Concentration in mouse plasma
[9] = po, 30 mg/kg, Concentration in mouse plasma, Mean
[10] = Severe acute respiratory syndrome coronavirus 2, Vero C1008

## O=c1cc(-c2ccccc2)oc2cc(O)c(O)c(O)c12 [baicalein, reference compound]
[1]
  adduct with GSH: no adduct of GSH with baicalein was detected
[2]
  EC50: 2.94 µM

## COc1cc(O)c2c(=O)c(O)c(-c3cc(O)c(O)c(O)c3)oc2c1 [compound 3, 7-O-methyl myricetin]
[3]; [6]
  EC50: 12.6 µM

## O=c1c(O)c(-c2cc(O)c(O)c(O)c2)oc2cc(OCC3CCCC3)cc(O)c12 [compound 6, 7-O-cyclopentylmethyl-myricetin]
[3]; 100 µM
  inhibition ratio (%): 99.992% and 99.991% and 99.989% and 98.833% and 95.7336% and 99.607% and 99.987% and 99.985%
[3]; read-out: EC50
  EC50: 10.1 µM and 7.07 µM and 5.5 µM

## COc1cc(O)c2c(c1)O[C@H](c1cc(O)c(O)c(O)c1)[C@@H](O)C2=O [compound 7, 7-O-methyl dihydromyricetin]
[3]; 6.25 µM
  inhibition ratio (%): 21.811% and 15.067% and 12.154%
[3]; 25 µM
  inhibition ratio (%): 58.083% and 57.749% and 55.409%
[3]; 50 µM
  inhibition ratio (%): 75.679% and 73.921% and 74.205%
[3]; 200 µM
  inhibition ratio (%): 99.619% and 99.626% and 99.565%
[3]; [6]
  EC50: 11.5 µM
[4]; 8 h
  Concentration in mouse plasma: 11.5 ng/mL
In vivo
  bioavailability: 18.1%
In vivo; iv, 10 mg/kg
  MRT: 41.4 ± 51.6 min
In vivo; [7]
  concentration at 0.05 h: 3190 ng/mL
  concentration at 2 h: 62.4 ng/mL
  concentration at 4 h: 23.6 ng/mL
  concentration at 8 h: 0 ng/mL
  concentration at 24 h: 0 ng/mL
In vivo; po, 30 mg/kg
  MRT: 113 min
  Tmax: 15 min
  bioavailability: 18.1%
  AUC(0-inf): 588 ng·h/mL
  AUC(0-t): 510 ng·h/mL
In vivo; [8]
  concentration at 0.5 h: 200 ng/mL
  concentration at 1 h: 112 ng/mL
  concentration at 8 h: 10.1 ng/mL
In vivo; [9]
  concentration at 0.5 h: 279 ng/mL
  concentration at 1 h: 118 ng/mL
  concentration at 2 h: 61.2 ng/mL
  concentration at 4 h: 32.9 ng/mL
  concentration at 8 h: 4.32 ng/mL
  concentration at 24 h: 0 ng/mL
PK study in mice; iv, 10 mg/kg, T1/2, mice, i.v. 10 mg/kg
  half-life: 34.8 ± 37.8 min
PK study in mice; iv, 10 mg/kg, T1/2, mouse, i.v. 10 mg/kg, mean
  half-life: 34.8 min
PK study in mice; po, 30 mg/kg, T1/2, mice, p.o. 30 mg/kg
  half-life: 104 min
PK study in mice; po, 30 mg/kg, T1/2, mouse, p.o. 30 mg/kg, mean
  half-life: 104 min
PK study in mice; i.v. 10 mg/kg, 10 mg/kg
  T1/2: 7.2 min and 97.2 min and 5.4 min and 40.2 min and 22.8 min
PK study in mice; p.o. 30 mg/kg, 30 mg/kg
  T1/2: 111 min and 187 min and 86.4 min and 78.6 min and 58.8 min

## O=c1c(O)c(-c2cc(O)c(O)c(O)c2)oc2cc(OP(=O)(Oc3ccccc3)Oc3ccccc3)cc(O)c12 [compound 9]
[3]; [6]
  EC50: 3.15 µM

## O=C1c2c(O)cc(OP(=O)(Oc3ccccc3)Oc3ccccc3)cc2O[C@H](c2cc(O)c(O)c(O)c2)[C@H]1O [compound 10]
[3]
  EC50: 6.99 µM and 8.24 µM and 10.2 µM and 10.4 µM and 8.4 µM
[3]; [10]
  EC50: 9.94 µM
[3]; [6]
  EC50: 9.03 µM

## O=C1c2c(O)cc(O)cc2O[C@H](c2cc(O)c(O)c(O)c2)[C@H]1O [dihydromyricetin]
[3]
  EC50: 13.9 µM and 9.94 µM and 13.7 µM and 14 µM and 17.6 µM
[3]; [10]
  EC50: 12.3 µM
[3]; [6]
  EC50: 13.6 µM

## O=c1c(O)c(-c2cc(O)c(O)c(O)c2)oc2cc(O)cc(O)c12 [myricetin, 3,5,7,3′,4′,5′-hexahydroxyflavone]
SARS-CoV-2 PLpro
  times weaker than against 3CLpro: more than 100
[5]
  IC50: 132 ± 10.6 µM
  times weaker than against 3CLpro: more than 100
[3]; [6]
  EC50: 8 µM
[1]; absence of oxygen
  myricetin consumed: 11%
[1]; myricetin reacting with glutathione, 0h
  Ln(%parent): 4.593 and 4.572 and 4.649
[1]; myricetin reacting with glutathione, 2h
  Ln(%parent): 4.472 and 4.529 and 4.531
[1]; myricetin reacting with glutathione, 4h
  Ln(%parent): 4.27 and 4.376 and 4.3091
[1]; myricetin reacting with glutathione, 6h
  Ln(%parent): 4.107 and 4.203 and 4.174
[1]; myricetin reacting with glutathione, 8h
  Ln(%parent): 3.902 and 4.0179 and 3.984
[1]; myricetin reacting with glutathione, 10h
  Ln(%parent): 3.729 and 3.812 and 3.826
[1]; myricetin reacting with glutathione, single independent experiment
  kpseudo1st: 0.001475 and 0.001311 and 0.001403
[1]; presence of oxygen
  myricetin consumed: 65%
[4]; mouse
  T1/2: 26.4 min
In vivo; ip, 10 mg/kg
  MRT: 5.4 min
  AUC(0-inf): 1040 ng·h/mL
  AUC(0-t): 1090 ± 103 ng·h/mL
  Cmax: 1800 ± 346 ng/mL
  MRT inf: 66.6 min
  half-life: 126 ± 1.2 min
In vivo; po, 30 mg/kg
  MRT: 50.4 min
  AUC(0-inf): 8.51 ng·h/mL
  AUC(0-t): 6.07 ng·h/mL
  Cmax: 8.59 ng/mL
  MRT inf: 50.4 min
  half-life: 26.4 min
In vivo; po, 30 mg/kg, Tmax
  Tmax: 30 min
In vitro
  CC50: > 200 µM

## CCC(CC)COC(=O)[C@H](C)N[P@](=O)(OC[C@H]1O[C@@](C#N)(c2ccc3c(N)ncnn23)[C@H](O)[C@@H]1O)Oc1ccccc1 [remdesivir, reference compound]
[3]; [6]
  EC50: 3.68 µM

## CCC(CC)COC(=O)[C@H](C)N[P@](=O)(OC[C@H]1O[C@@](C#N)(c2ccc3c(N)ncnn23)[C@H](O)[C@@H]1O)Oc1ccccc1 [remisivir]
[3]; read-out: EC50 (µM) Mean
  EC50: 3.68 µM
Vero E6 cells; concentration 2.34375 (unit not given)
  inhibition ratio (%): 99.5877% and 102.33% and 102.223%
Vero E6 cells; concentration 4.6875 (unit not given)
  inhibition ratio (%): 100.126% and 103.513% and 104.159%
Vero E6 cells; concentration 9.375 (unit not given)
  inhibition ratio (%): 103.244% and 98.6198% and 99.2113%
Vero E6 cells; concentration 18.75 (unit not given)
  inhibition ratio (%): 101.362% and 100.126% and 95.6085%
Vero E6 cells; concentration 37.5 (unit not given)
  inhibition ratio (%): 102.707% and 103.352% and 97.8132%
Vero E6 cells; concentration 75 (unit not given)
  inhibition ratio (%): 97.383% and 95.0708% and 98.7274%
Vero E6 cells; concentration 150 (unit not given)
  inhibition ratio (%): 83.7247% and 84.1011% and 85.4454%
Vero E6 cells; concentration 300 (unit not given)
  inhibition ratio (%): 42.4807% and 43.2336% and 43.126%

## N-phenylacrylamide [reference compound]
[1]
  kpseudo1st: 0.02117 and 0.01952 and 0.0207
